Assay results reported in US6395758B1, “Small molecule carbamates or ureas for vision and memory disorders” (GPI Nil Holdings, Inc., priority 1998, dated 2002).
pKi: −log10 of the molar value. Marks after values point to notes of the source that are not given here.

Experiments:
[1] = tested on: retinal ganglion cell axons; assay: Protection of retinal ganglion cell axons 14 days after optic nerve transection (Table E); type: in vivo; settings: ± SEM
Source text: Efficacy of representative compounds from different immunophilin ligand series in protecting retinal ganglion cell axons from degeneration following optic nerve transection is set forth in Table E.

[2] = Clearance (Table E comments); type: in vitro ADME; settings: no method given
FKBP12 = FKBP12 (Homo sapiens, UniProt P62942); assay: Ki test: inhibition of peptidyl-prolyl isomerase (rotamase) activity, chymotrypsin-coupled assay; type: biochemical; settings: apparent Ki, Table II
Chain of FKBP12 (P62942 whole entry, species assumed): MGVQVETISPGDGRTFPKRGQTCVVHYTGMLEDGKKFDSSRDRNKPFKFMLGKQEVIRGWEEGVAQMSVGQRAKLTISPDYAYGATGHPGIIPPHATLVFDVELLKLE
Source text: The inhibition of the prolyl peptidyl cis-trans isomerase activity of FKBP may be measured as an indicator of this affinity. Inhibition of the peptidyl-prolyl isomerase (rotamase) activity of the compounds used in the inventive methods and pharmaceutical compositions can be evaluated by known methods described in the literature (Harding et al., Nature, 1989, 341:758-760; Holt et al. J. Am. Chem. Soc., 115:9923-9938). […] The cis-trans isomerization of an alanine-proline bond in a model substrate, N-succinyl-[…]-nitroanilide, is monitored spectrophotometrically in a chymotrypsin-coupled assay, which releases para-nitroanilide from the trans form of the substrate. The inhibition of this reaction caused by the addition of different concentrations of inhibitor is determined, and the data is analyzed as a change in first-order rate constant as a function of inhibitor concentration to yield the apparent Ki values. […] The absorbance at 390 nm versus time is monitored for 90 seconds using a spectrophotometer and the rate constants are determined from the absorbance versus time data files.

aged impaired mice = assay: Morris watermaze, spatial learning and memory in aged rodents; type: in vivo, C57BL/6N-Nia mice; settings: 10 mg/kg daily
Source text: The Morris watermaze is widely used for assessing spatial memory formation and retention in experimental animals. The test depends on the animal's ability to utilize spatial visual information in order to locate a submerged escape platform in a water tank. It is important that the tank itself be as devoid of specific visual features as possible—thus, it is always circular in shape, the sides are kept smooth and in uniform dull colors, and the water is rendered opaque with nontoxic watercolor pigment or powdered milk. This is to ensure that the animal navigates only by the use of more distant visual cues, or by the use of intra-maze cues specifically provided by the experimenter. The animals' path, speed, and swim time are tracked with a ceiling camera for later computerized analysis. Over the course of several successive trials, spatial learning can therefore be defined as a drop of distance swum, or time elapsed, from placement in the tank until escape onto the invisible platform. The procedure involved using three-month old (young) and 18-19 month old male C57BL/6N-Nia (aged) mice which habituated to the well known and conventional Morris watermaze during a 4 trials/day, 3-4 day visible platform training phase. […] Swim Distances (cm) were analyzed in a 7×5 ANOVA including Groups and Blocks (1-5) as factors in the analysis, treating Blocks as a repeated measure.

[3] = tested on: retinal ganglion cells and their axons; assay: Example 18: optic nerve transection, 28 day GPI-1046, sacrifice at 90 days; type: in vivo, Sprague Dawley rats; settings: 10 mg/kg/day s.c. for 28 days; 90 days after transection
Source text: Transection of the mammalian optic nerve results in a brief period of abortive regeneration, but the majority of axotomized neurons die and the axons from many persisting ganglion cells die back beyond the optic nerve head.

[4] = tested on: retinal ganglion cells, optic nerve axons and myelin; assay: Retinal ischemia (intraocular pressure raised above arterial pressure), evaluation 28 days later; type: in vivo, rats
Source text: Retinal ganglion cells were retrogradely labeled in adult rats by bilateral injection of fluorogold in their lateral geniculate nuclei. Labeled ganglion cells in the normal rat retina appear as white profiles against the dark background (FIG. 1A). Complete retinal ischemia was produced by infusing normal saline solution into the retinal vitreous cavity of each eye until the intraocular pressure exceeded arterial blood pressure. 28 days after the ischemic episode extensive degeneration of retinal ganglion cell was evidenced by massive reduction in the density of fluorogold labeled cells (FIG. 1B).
Optic nerves from vehicle treated cases examined 28 days after a 1 hour retinal ischemic episode are characterized by a decreased density of optic nerve axons and the appearance of numerous degenerating myelin figures (bright white filled circles).

[5] = tested on: retina (neovascularization, INL, GCL, ONL neurons); assay: Streptozotocin induced diabetes, retinal neovascularization and neuron loss; type: in vivo
[6] = tested on: retinal ganglion cells and optic nerve axons; assay: Optic nerve transection, 14 or 28 day treatment, evaluation 90 days after transection; type: in vivo, Sprague Dawley rats; settings: 90 days after ONT; for increased ON axon density: adjusted for optic nerve diameter; for ON axon Count: axonal density multiplied by ON area; for Proximal optic nerve myelin basic protein Density, % recovery: ± SEM
Source text: All eyes and optic nerves stumps were removed.

[7] = tested on: streptozotocin-induced diabetic rat; assay: Streptozotocin-induced diabetic sensory neuropathy, hot plate and tail flick; type: in vivo, Male Wistar rats; settings: treated for 6 weeks at 10 mg/kg s.c., started six weeks after streptozotocin
Description: The procedure involved using Male Wistar rats which were given a single injection of streptozotocin (65 mg/kg i.v.). Blood glucose levels were determined weekly for the first three weeks and on the last week of the experiment. Animals were evaluated weekly for signs of sensory neuropathy using the conventional hot plate and tail flick apparatus test procedures.

[8] = 28 day treatment beginning 8 weeks after onset of streptozotocin diabetes

Structure (SMILES): O=C(SCCCc1ccccc1)[C@@H]1CCCN1C(=O)NC12CC3CC(CC(C3)C1)C2 [B]
- RT97 + RGC axon density 14 days after ON transection (% ON axons rescued) [1]: 100.0% ± 5.2% SEM

Structure (SMILES): O=C(SCCCc1ccccc1)[C@@H]1CCCN1S(=O)(=O)Cc1ccccc1 [C]
- RT97 + RGC axon density 14 days after ON transection (% ON axons rescued) [1]: 60.4% ± 3.1% SEM
- Clearance [2]: 31.1 µL/min

Structure (SMILES): CCC(C)CNC(=O)N1CCC[C@H]1C(=O)OCCCc1cccnc1 (stereo partly drawn) [Compound 1, 3-(3-pyridyl)-1-propyl (2S)-1-[(2-methylbutyl)carbamoyl]pyrrolidine-2-carboxylate]
- pKi (FKBP12): 7.15

Structure (SMILES): CCC(C)(C)NC(=O)N1CCC[C@H]1C(=O)OCCCc1cccnc1 [Compound 2, 3-(3-Pyridyl)-1-propyl (2S)-1-[(1′,1′-dimethylpropyl)carbamoyl]pyrrolidine-2-carboxylate]
- pKi (FKBP12): 6.13

Structure (SMILES): O=C(OCCCc1cccnc1)[C@@H]1CCCN1C(=O)NC1CCCCC1 [Compound 4, 3-(3-pyridyl)-1-propyl (2S)-1-[(cyclohexyl)carbamoyl]-pyrrolidine-2-carboxylate]
- pKi (FKBP12): 5.83

Structure (SMILES): O=C(OCCCc1cccnc1)[C@@H]1CCCN1C(=S)NC12CC3CC(CC(C3)C1)C2 [Compound 5, 3-(3-pyridyl)-1-propyl (2S)-1-[(1-adamantyl)thiocarbamoyl]-pyrrolidine-2-carboxylate]
- pKi (FKBP12): 6.94

Structure (SMILES): CCC(C)(C)C(=O)C(=O)N1CCCC[C@H]1C(=O)SCCC(c1ccccc1)c1ccccc1 [Compound K]
- Clearance [2]: 4.5 µL/min

Structure (SMILES): CCC(C)(C)C(=O)C(=O)N1CCCCC1C(=O)OC(CCc1ccccc1)CCc1ccccc1 (stereo not drawn) [E]
- Clearance [2]: 41.8 µL/min

Structure (SMILES): CCC(C)(C)C(=O)C(=O)N1CCC[C@H]1C(=O)SCCCc1cccnc1 [GPI 1046]
- spatial memory performance, retention testing (swim distance), aged impaired GPI-1046 vs aged impaired vehicle (aged impaired mice; retention testing after 3 weeks of dosing, F1.69=8.11, P=0.006): significantly enhanced spatial memory performance
- retention phase swim distance, young vs aged impaired GPI-1046 (aged impaired mice; F1.69=3.09, P=0.08): no longer any statistically significant difference
- axons in the proximal stump of the transected nerve (RT97) [3]: preserved the axons of virtually all protected neurons
- ganglion cell population spared [3]: 25%
- protection of fluorogold labeled retinal ganglion cells ([4]; 10 mg/kg s.c. 1 hour prior to ischemia and 10 mg/kg/day for next four days, 28 days after ischemia): noticeable protection of a large proportion of the vulnerable ganglion cell population
- density of degenerating myelin figures in optic nerve ([4]; 28 days after 1 hour retinal ischemic episode): dramatically decreased the density of degenerating myelin figures
- RT97 + RGC axon density 14 days after ON transection (% ON axons rescued) [1]: 60.5% ± 3.9 SEM
- Clearance [2]: 63.8 µL/min
- neovascularization in the PR, ONL, OPL and INL [5, 8]: reduced neovascularization
- neuronal loss in the ONL [5, 8]: did not appear to protect against neuronal loss
- loss of neurons in the INL and GCL ([5]; 28 day treatment beginning 8 weeks after onset, vs streptozotocin/vehicle controls): appeared to decrease the loss of neurons
- % RGCs Rescued ([6]; 14 days GPI 1046): 5.3%
- % surviving RGCs with ON axons ([6]; 14 days GPI 1046): 33.6%
- ON head area (% sham) ([6]; 14 days GPI 1046): 76%
- Spared RGC population ([6]; 14 days GPI 1046): 20,275
- increased ON axon density ([6]; 14 days GPI 1046): 1.5×
- ON axon Count ([6]; 14 days GPI 1046): 6820
- Distal optic nerve myelin basic protein loss ([6]; 14 days GPI 1046, cross sectional area multiplied by myelin density): 47% loss
- Distal optic nerve shrinkage ([6]; 14 days GPI 1046, cross sectional area vs sham): 33% shrinkage
- ON Axon density ([6]; 14 days GPI 1046, mean ± SEM RT97 labeled axons in 200 μm × 200 μm region): 569 ± 23
- Proximal optic nerve myelin basic protein Density, % recovery ([6]; 14 days GPI 1046, % areal coverage of cross section): 1.6 ± 3.0 SEM % recovery
- RGC Counts ([6]; 28 days GPI 1046 10 mg/kg/day sc, mean density ± SEM of Fluoro-gold labeled RGC in 400 μm × 400 μm gridfields): 67.9 ± 5.8
- % surviving RGCs with ON axons ([6]; 28 days GPI 1046): 81.4%
- Distal optic nerve myelin preservation ([6]; 28 days GPI 1046): 99% myelin
- ON head area (% sham) ([6]; 28 days GPI 1046): 95%*
- Spared RGC population ([6]; 28 days GPI 1046): 28,096*
- increased ON axon density ([6]; 28 days GPI 1046): 5.0×
- ON axon Count ([6]; 28 days GPI 1046): 22,861*
- Distal optic nerve, less shrinkage ([6]; 28 days GPI 1046, cross sectional area vs sham): 56% less shrinkage*
- Proximal optic nerve myelin basic protein Density, % recovery ([6]; 28 days GPI 1046): 70 ± 6.3 SEM % recovery
- density of myelin, distal stump ([6]; first 14 days GPI 1046): slightly increase the density of myelin
- shrinkage of the distal stump ([6]; first 14 days GPI 1046): did not protect against shrinkage
- protection of optic nerve axons ([6]; first 14 days GPI 1046, proximal stump): 5.3%
- cross sectional shrinkage of the distal stump ([6]; first 28 days GPI 1046): prevented cross sectional shrinkage
- fascicular staining pattern for myelin basic protein, proximal stump ([6]; first 28 days GPI 1046): dramatic preservation of the fascicular staining pattern
- myelin levels, distal stump, % of normal levels ([6]; first 28 days GPI 1046): 99%
- latency, hot plate and tail flick [7]: improvement in latency

Structure (SMILES): CCC(C)(C)C(=O)C(=O)N1CCCC[C@H]1C(=O)O [G]
- RT97 + RGC axon density 14 days after ON transection (% ON axons rescued) [1]: 34.0% ± 4.8% SEM

Structure (SMILES): CCC(C)(C)C(=O)C(=O)N1CCCC[C@H]1C(N)=O [H]
- RT97 + RGC axon density 14 days after ON transection (% ON axons rescued) [1]: 30.3% ± 8.0% SEM

Structure (SMILES): O=C(OCCCc1cccnc1)[C@@H]1CCCN1C(=S)NC1CCCCC1 [I]
- RT97 + RGC axon density 14 days after ON transection (% ON axons rescued) [1]: 23.8% ± 5.3 SEM
- Clearance [2]: 8.0 µL/min

Structure (SMILES): CCC(C)(C)C(=O)C(=O)N1CCC[C@H]1C(=O)CCCCc1cccnc1 [J]
- RT97 + RGC axon density 14 days after ON transection (% ON axons rescued) [1]: 15.8% ± 4.8% SEM
- Clearance [2]: 1.5 µL/min

Structure (SMILES): CCC(C)(C)C(=O)C(=O)N1CCC[C@H]1C(=O)O [L]
- RT97 + RGC axon density 14 days after ON transection (% ON axons rescued) [1]: 7.8% ± 3.0% SEM
- Clearance [2]: 5.2 µL/min

Structure (SMILES): CCC(C)(C)C(=O)C(=O)N1CCC[C@H]1C(=O)SCCC(c1ccccc1)c1ccccc1 [M]
- RT97 + RGC axon density 14 days after ON transection (% ON axons rescued) [1]: −6.3% ± 3.9% SEM
- Clearance [2]: 12.5 µL/min

Structure (SMILES): CN(C)C(=O)N1CCC[C@H]1C(=O)SCCCc1ccccc1 [N]
- Clearance [2]: 21.9 µL/min
